Columns and labels:
[1] = system: HT29 xenografts, lung metastasis; assay: lung metastasis model using HT29 cells; format: in vivo, NSG mice; details: i.p. twice a week for 3 weeks
Description: (§1) The number of cells that invaded the ECM was determined after 24 h. Data are expressed as percentage change in tumor invasion relative to that of DMSO-treated cells (n=3). (D) Wound healing by DMSO- and SPIR-treated HCT116, HT29, and CAL27 cells was compared. Data are calculated as the percentage change in distance of migration relative to that of DMSO-treated cells (n=3). […] Tumor xenografts and lung metastases were detected by bioluminescence imaging on day 25. Data are shown as the average total flux (photons/second)±standard deviation (n=8). (F) The lung metastases (arrows) were confirmed by examining lung tissue sections. * P≤0.05, ** P<0.01, *** P<0.005, **** P<0.0001.
Luciferase-expressing HCT116 and HT29 cells were generated by lentiviral transduction of the cells with a CMV promoter-driven luciferase expression construct engineered from the pLL3.7 vector. […] Bioluminescence imaging was performed in a Xenogen imaging system to monitor tumor growth and the data were analyzed using Living Image software (Caliper LifeSciences). For the lung metastasis model using HT29 cells, lungs were harvested for bioluminescence imaging and then fixed in 10% neutral buffered formalin, paraffin embedded, sectioned, and stained with hematoxylin and eosin. A total of six lung sections at 100-μm intervals were collected for the observation of pulmonary nodules. […]

[2] = system: HCT116, HT29, and CAL27 cells; assay: in vitro cell invasion assay (ECM-coated Transwell); format: cell-based, human; details: HCT116, HT29, CAL27
Description: as §1
The invasiveness of the tumor cells was determined by using the CytoSelect 96-well Cell Invasion Assay with Basement Membrane (Cell Biolabs) according to the manufacturer instructions.

[3] = system: colon cancer cell lines (NKL or primary NK cells as effectors); assay: NK cell cytotoxicity assay (BATDA release); format: cell-based, human
Description: (A) NKL cells express high level of NKG2D but not NKp30 on their cell surface as determined by flow cytometry. Results are representative of two independent experiments. Therefore, the use of anti-NKp30 in NKL killing assay described in 2 F below was considered as a non-specific IgG blockade relative to anti-NKG2D. […] (D) HCT116 cells transduced with control or a ULBP2-overexpressing lentiviral construct were analyzed by flow cytometry for the surface expression of ULBP2. Results are representative of two independent experiments. (E) NK cell cytotoxicity on the ULBP2-transduced HCT116 cells was determined by a BATDA release assay using NKL cells as effector cells (n=3). (F) DMSO- or SPIR-treated (3 days) HCT116 cells were subjected to a BATDA release assay using NKL cells in the presence or absence of anti-NKp30 or anti-NKG2D antibodies (10 μg/mL) (n=3). (G) DMSO- or SPIR-treated (3 days) HCT116 cells were subjected to a BATDA release assay using IL-2 (10 U/ml)-primed primary NK cells isolated from healthy donors at various E:T ratios in the presence or absence of anti-NKp30 or anti-NKG2D antibodies (10 μg/mL) (n=3). * P<0.05, ** P<0.005, *** P<0.0001.
The results were calculated as follows: […]

TIMP2 and TIMP3 = assay: qRT-PCR of TIMP2 and TIMP3 mRNA; format: cell-based, human; details: CAL27 and all the colon cancer cell lines, 56 μM 3 days
Description: as §1
For qRT-PCR, total RNA was extracted from untreated or drug-treated tumor cells by using the RNA Clean & Concentrator (Zymo Research). All cDNA was generated by using the SuperScript VILO cDNA Synthesis kit (Life Technologies) and diluted 10-fold for analysis using the 7900HT Fast Real-time PCR System (Applied Biosystems). The data were calculated as the CT of target genes normalized to the CT of GAPDH of each sample. Primer sequences of the target genes were: MICA-F: 5′-[…]-3′, (SEQ ID NO: 14) MICA-R: 5′-[…]-[…]-3′, (SEQ ID NO: 15) MICB-F: 5′-[…]-3′, (SEQ ID NO: 16) MICB-R:5′-CCCTC-[…]-3′, (SEQ ID NO: 17), ULBP1-F:5′-[…]-3′, (SEQ ID NO: 18), ULBP1-R:5′-[…]-3′, (SEQ ID NO: 19), ULBP2-F:5′-[…]-3′, (SEQ ID NO: 20), ULBP2-R:5′-[…]-3′, (SEQ ID NO: 21), ULBP3-F:5′-[…]-TTCG-3′, (SEQ ID NO: 22), ULBP3-R:[…]-3′, (SEQ ID NO: 23), TIMP2-F:5′-[…]-[…]-3′, (SEQ ID NO: 24), TIMP2-R:[…]-3′, (SEQ ID NO: 25), TIMP3-F:5′-[…]-3′, (SEQ ID NO: 26), TIMP3-R:5′-[…]-[…]-3′ (SEQ ID NO: 27), GAPDH-F: 5′-[…]3′ (SEQ ID NO: 28), GAPDH-R: 5′-G-[…]-3′ (SEQ ID NO: 29). […] Differentially expressed transcripts were analyzed by ANOVA on Spotfire program.

[4] = system: HCT116, HT29, and CAL27 cells; assay: wound-healing assay; format: cell-based, human; details: HCT116, HT29, CAL27
Description: as §1
Confluent cell layers of CAL27 and HT29 cells with a 500 μm±50 μm gap were formed by using Ibidi culture inserts (RPI Corp.). Gap distances were measured at various times using a Nikon Eclipse Ti inverted microscope and NIS-Elements software (Nikon).

HDAC = HDAC activity and HDAC3 mRNA after SPIR treatment; format: cell-based, human

## CC(=O)S[C@@H]1CC2=CC(=O)CC[C@]2(C)[C@H]2CC[C@@]3(C)[C@@H](CC[C@@]34CCC(=O)O4)[C@H]12 [SPIR, spironolactone]
[1]
  lung metastasis: significant reduction of lung metastasis
[2]
  invasion through ECM-coated membranes: significantly suppressed invasion
[3]; HT29 and SW480 cells, IL-2-primed primary NK cells
  susceptibility to primary NK cell-mediated lysis: markedly enhanced
[3]; all colon cancer cell lines, SPIR 56 μM
  susceptibility to NKL lysis: significantly increased
TIMP2 and TIMP3
  mRNA expression of TIMP2 and TIMP3: significantly upregulated
[4]
  cell migration: delayed cell migration
HDAC; SW480 or HCT116 cells
  HDAC activities: did not inhibit HDAC activities
HDAC; after SPIR treatment
  mRNA expression of HDAC3: no significant change

— patent US10286000B2, “Retinoid X receptor-gamma agonists and retinoid X receptor-alpha antagonists for treatment of cancer” (St. Jude Children's Research Hospital, Inc., priority 2013, dated 2019)
